Experimental data published in patent US20240018158A1, “BRM TARGETING COMPOUNDS AND ASSOCIATED METHODS OF USE” (Prelude Therapeutics Incorporated, priority 2020, published 2024).

Molecular target: SMARCA2 (Homo sapiens (Human), UniProt P51531)
Experiment: SMARCA2 HiBiT degradation assay in HEK293T cells
Assay type: cell-based
Details: 293T HiBiT assay, 24 h; for DC50: read-out: DC50 (SM2-293T) SMARCA2 degradation potency; for Dmax: HEK-293T, read-out: Dmax % (SM2-293T) maximum SMARCA2 degradation within the concentrations tested
Protocol: HiBiT peptide knock-in of SMARCA2 in LgBiT expressing HEK293T cells was performed by CRISPR-mediated tagging system as described Promega. The homozygous HiBiT knock-in on c-terminus SMARCA2 was confirmed by sanger sequence. SMARCA2-HiBiT knock-in Hela monoclonal cell (CS302366) and SMARCA4-HiBiT knock-in Hela monoclonal cell (CS3023226) were purchased from Promega. The heterozygous HiBiT-knock-in was confirmed by sanger sequence in both SMARCA2-HiBiT and SMARCA4-HiBiT monoclonal cells. Compounds were prepared in a low dead volume plate at 3-fold serial dilution, and then transferred 25 nL/well into a 384 well plate (Corning: #356661) by Agilent Bravo liquid dispenser. SMARCA2-HiBiT monoclonal HEK293T cells were added at 5,000/well/25 uL into the compound containing 384 well plate. After 24 h incubation, 25 uL/well of Nano-Glo HiBiT Lytic detection buffer (Promega: N3050) was added to the wells and incubate for 10 min on a shaker, centrifuged for 5 min, and then RLU was detected on a microplate reader (Envision, PerkinElmer). The RLU ratio values are normalized to percent inhibition as follows: % inhibition=((HC−LC)−(compound−LC))/(HC−LC))*100, where HC=high control=mean signal of DMSO only; LC=low control=mean signal of 100% inhibition of RLU by 1 μM PRT1001728. An 11-point dose response curve for each compound will be generated using normalized % inhibition to determine IC50 values based on the equation: Y=Bottom+((Top-Bottom)/(1+((IC50/X)^Slope))), where Y is the % inhibition in the presence of X inhibitor concentration; Top=the top plateau of the curve; Bottom=the bottom plateau of the curve; Slope=Hill coefficient; DC50=concentration of compound with 50% degradation in relation to top/high control. DC50 values were determined by using XLfit Model 205.

Chain of SMARCA2 (P51531 whole entry): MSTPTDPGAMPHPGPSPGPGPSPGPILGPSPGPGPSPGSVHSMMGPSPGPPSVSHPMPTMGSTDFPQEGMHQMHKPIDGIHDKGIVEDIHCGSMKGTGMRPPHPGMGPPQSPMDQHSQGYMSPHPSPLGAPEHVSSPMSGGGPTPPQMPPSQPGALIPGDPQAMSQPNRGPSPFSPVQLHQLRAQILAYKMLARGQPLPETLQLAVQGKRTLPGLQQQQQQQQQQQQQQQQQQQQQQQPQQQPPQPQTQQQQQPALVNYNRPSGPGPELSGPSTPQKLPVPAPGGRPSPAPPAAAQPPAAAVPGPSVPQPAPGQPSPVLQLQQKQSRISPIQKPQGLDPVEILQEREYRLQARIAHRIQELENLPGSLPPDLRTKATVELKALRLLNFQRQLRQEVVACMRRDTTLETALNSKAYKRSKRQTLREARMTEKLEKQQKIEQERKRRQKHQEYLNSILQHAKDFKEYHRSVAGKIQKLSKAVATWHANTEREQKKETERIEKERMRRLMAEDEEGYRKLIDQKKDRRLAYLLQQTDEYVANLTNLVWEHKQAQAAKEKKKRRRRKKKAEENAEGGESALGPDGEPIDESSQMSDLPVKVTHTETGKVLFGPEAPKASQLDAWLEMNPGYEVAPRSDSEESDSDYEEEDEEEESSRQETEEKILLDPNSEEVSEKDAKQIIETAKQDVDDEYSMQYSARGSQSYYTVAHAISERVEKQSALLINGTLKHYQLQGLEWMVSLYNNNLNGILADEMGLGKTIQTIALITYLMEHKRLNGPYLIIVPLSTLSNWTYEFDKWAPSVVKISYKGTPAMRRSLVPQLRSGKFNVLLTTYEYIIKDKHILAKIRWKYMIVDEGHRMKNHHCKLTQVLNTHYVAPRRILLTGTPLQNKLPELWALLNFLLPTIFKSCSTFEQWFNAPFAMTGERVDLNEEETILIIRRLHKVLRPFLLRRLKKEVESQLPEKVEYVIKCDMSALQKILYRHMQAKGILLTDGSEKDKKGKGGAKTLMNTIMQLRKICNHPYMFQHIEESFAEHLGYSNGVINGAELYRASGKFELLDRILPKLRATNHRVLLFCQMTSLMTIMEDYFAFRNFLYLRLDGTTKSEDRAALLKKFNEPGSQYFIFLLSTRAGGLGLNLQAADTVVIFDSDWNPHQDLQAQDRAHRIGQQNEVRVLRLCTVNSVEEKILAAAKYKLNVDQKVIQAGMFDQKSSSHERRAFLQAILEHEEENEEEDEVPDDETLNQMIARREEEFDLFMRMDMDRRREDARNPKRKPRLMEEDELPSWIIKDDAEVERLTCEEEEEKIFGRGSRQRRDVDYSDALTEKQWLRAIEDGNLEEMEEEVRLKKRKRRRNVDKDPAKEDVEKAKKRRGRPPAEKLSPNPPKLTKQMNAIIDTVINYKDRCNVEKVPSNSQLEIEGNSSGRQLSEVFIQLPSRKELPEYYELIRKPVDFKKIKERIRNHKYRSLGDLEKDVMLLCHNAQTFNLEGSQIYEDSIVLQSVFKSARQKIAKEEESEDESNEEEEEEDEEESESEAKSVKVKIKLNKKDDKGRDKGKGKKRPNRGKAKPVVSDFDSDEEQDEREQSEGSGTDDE

| DC50 | Dmax | Compound |
| --- | --- | --- |
| < 100 nM | > 75% | Cc1ncsc1-c1ccc([C@H](C)NC(=O)[C@@H]2C[C@@H](O)CN2C(=O)[C@@H](c2cc(OCCN3CCC(CN4CCC(N5CCN6c7cc(-c8ccccc8O)nnc7NC[C@H]6C5)CC4)CC3)no2)C(C)C)cc1 [Example 20, (2S,4R)-4-hydroxy-1-((R)-2-(3-(2-(4-((4-((S)-2-(2-hydroxyphenyl)-5,6,6a,7,9,10-hexahydro-8H-pyrazino[1′,2′:4,5]pyrazino[2,3-c]pyridazin-8-yl)piperidin-1-yl)methyl)piperidin-1-yl)ethoxy)isoxazol-5-yl)-3-methylbutanoyl)-N-((S)-1-(4-(4-methylthiazol-5-yl)phenyl)ethyl)pyrrolidine-2-carboxamide] |
| < 100 nM | > 75% | Cc1ncsc1-c1ccc([C@H](C)NC(=O)[C@@H]2C[C@@H](O)CN2C(=O)[C@@H](c2cc(OCCN3CCN(CCN4CCC(N5CCN6c7cc(-c8ccccc8O)nnc7NC[C@H]6C5)CC4)CC3)no2)C(C)C)cc1 [Example 21, (2S,4R)-4-hydroxy-1-((R)-2-(3-(2-(4-(2-(4-((S)-2-(2-hydroxyphenyl)-5,6,6a,7,9,10-hexahydro-8H-pyrazino[1′,2′:4,5]pyrazino[2,3-c]pyridazin-8-yl)piperidin-1-yl)ethyl)piperazin-1-yl)ethoxy)isoxazol-5-yl)-3-methylbutanoyl)-N-((S)-1-(4-(4-methylthiazol-5-yl)phenyl)ethyl)pyrrolidine-2-carboxamide] |
| < 100 nM | > 75% | Cc1ncsc1-c1ccc([C@H](C)NC(=O)[C@@H]2C[C@@H](O)CN2C(=O)[C@@H](c2cc(OCCN3CCC(CCN4CCC(N5CCN6c7cc(-c8ccccc8O)nnc7NC[C@H]6C5)CC4)CC3)no2)C(C)C)cc1 [Example 22, (2S,4R)-4-hydroxy-1-((R)-2-(3-(2-(4-(2-(4-((S)-2-(2-hydroxyphenyl)-5,6,6a,7,9,10-hexahydro-8H-pyrazino[1′,2′:4,5]pyrazino[2,3-c]pyridazin-8-yl)piperidin-1-yl)ethyl)piperidin-1-yl)ethoxy)isoxazol-5-yl)-3-methylbutanoyl)-N-((S)-1-(4-(4-methylthiazol-5-yl)phenyl)ethyl)pyrrolidine-2-carboxamide] |
| < 100 nM | > 75% | Cc1ncsc1-c1ccc([C@H](C)NC(=O)[C@@H]2C[C@@H](O)CN2C(=O)[C@@H](c2cc(OC(C)CN3CCCC(CN4CCN5c6cc(-c7ccccc7O)nnc6NC[C@H]5C4)C3)no2)C(C)C)cc1 (stereo partly drawn) [Example 23, (2S,4R)-4-hydroxy-1-((2R)-2-(3-((1-(3-(((S)-2-(2-hydroxyphenyl)-5,6,6a,7,9,10-hexahydro-8H-pyrazino[1′,2′:4,5]pyrazino[2,3-c]pyridazin-8-yl)methyl)piperidin-1-yl)propan-2-yl)oxy)isoxazol-5-yl)-3-methylbutanoyl)-N-((S)-1-(4-(4-methylthiazol-5-yl)phenyl)ethyl)pyrrolidine-2-carboxamide] |

| Compound | DC50 | Dmax |
| --- | --- | --- |
| Cc1ncsc1-c1ccc([C@H](C)NC(=O)[C@@H]2C[C@@H](O)CN2C(=O)[C@@H](c2cc(OC(C)CN3CCC(N4CCN5c6cc(-c7ccccc7O)nnc6NC[C@H]5C4)CC3)no2)C(C)C)cc1 (stereo partly drawn) [Example 17, (2S,4R)-4-hydroxy-1-((2R)-2-(3-((1-(4-((S)-2-(2-hydroxyphenyl)-5,6,6a,7,9,10-hexahydro-8H-pyrazino[1′,2′:4,5]pyrazino[2,3-c]pyridazin-8-yl)piperidin-1-yl)propan-2-yl)oxy)isoxazol-5-yl)-3-methylbutanoyl)-N-((S)-1-(4-(4-methylthiazol-5-yl)phenyl)ethyl)pyrrolidine-2-carboxamide] | < 100 nM | > 75% |
